We go through two compounds from patent publication US20230391841A1, “MACROCYCLIC PEPTIDES” (Herantis Pharma OYJ, priority 2019, published 2023).

The subject of one data set is rat hepatocytes. In words: In vitro metabolic stability in rat hepatocytes. The format is in vitro ADME. To be noted: 1 μM, 37° C., up to 60 min. As for the experimental part: The linear or macrocyclic compounds 1-14 and 23-26 (SEQ ID NOs: […]) were incubated in concentration 1 μM with pooled cryopreserved rat hepatocytes (Sprague-Dawley, male; 400 pl, 1.0 million viable cells/ml for compounds 1-8, 11-12 and 23-26 or 100 μl, 0.1 million viable cells/ml for compounds 9-10 and 13-14) for different time points (0, 10, 20, 40 or 60 min) at 37° C. The cell density and viability were determined by trypan blue exclusion method. The incubation was terminated by acetonitrile. The collected samples were centrifuged for 20 min at 2272×g and analyzed. The samples were analyzed is by UHPLC/PDA with high resolution mass spectrometry (QE-Orbitrap-MS on DDI mode) (compounds 1-8, 11-12 and 23-26) or HHPLC-ToF mass spectrometry (for compounds 9-and 13-14) to monitor disappearance of the compound. Verapramil 1 μM was used as a disappearance rate control. The analytical method was optimized by using the parent compounds for optimum chromatographic properties (peak shape and retention) and mass spectrometric ionization. The Ion chromatograms were extracted from the total ion chromatograms using calculated monoisotopic accurate masses with 5 mDa window. Disappearance was based on LC/MS peak areas, marking 0 min as 100%. The first-order rate constants k (min-1) of the metabolism were obtained from the slope of time versus logarithm (% of remaining compound) plot using Excel software. The in vitro half-life (t1/2) of study compound is defined as: t1/2In2/k. Calculated half-life is based on compound disappearance in rat liver hepatocytes.

Data set [1] relates to dopaminergic TH-positive neurons injured with MPP+. In words: Neuroprotective effect on dopaminergic TH-positive neurons injured with MPP+ (primary mesencephalic culture). The format is cell-based, rat. As to conditions: MPP+ injured TH-positive neurons. As for the experimental part: Neuroprotective effects of compounds 1-26 (SEQ ID NO: 1-26) were tested in an in vitro model in which primary cultures of rat embryonic mesencephalic neurons were stressed with MPP+ , the active metabolite of neurotoxin 1-methyl-4-phenyl-1,2,3,6-tetrahydropyridine (MPTP). MPP+ kills dopaminergic (TH-positive) neurons via a variety of toxic mechanisms, including mitochondrial dysfunction, generation of peroxynitrite, oxidative stress, ER stress and induction of apoptosis.
Culture of mesencephalic neurons. Rat dopaminergic neurons were cultured as described by Visanji et al., 2008. Briefly, the midbrains obtained from 15-day-old rat embryos (Janvier, France) were dissected, and the ventral portion of the mesencephalic flexure, a region of the developing brain rich in dopaminergic neurons, was used for the cell preparations. The midbrain cells were dissociated by trypsinization for 20 min at 37° C. (solution at a final concentration of 0.05% trypsin and 0.02% EDTA). The reaction was stopped by adding Dulbecco's modified Eagle's medium (DMEM) containing DNAase I grade II (0.5 mg/mL) and 10% of fetal calf serum (FCS). Cells were then mechanically dissociated by 3 passages through a 10 ml pipette. Cells were then centrifuged at 180×g for 10 min at +4° C. on a layer of BSA (3.5%) in L15 medium. The cell pellets were re-suspended in a defined culture serum-free medium consisting of Neurobasal (Invitrogen) supplemented with B27 (2%), L-glutamine (2 mM) and 2% of PS solution and 1Ong/ml of Brain-derived neurotrophic factor (BDNF) and 1 ng/mL of Glial-Derived Neurotrophic Factor (GDNF). Viable cells were counted in a Neubauer cytometer using the trypan blue exclusion test. The cells were seeded at a density of 40 000 cells/well in 96 well-plates (pre-coated with poly-L-lysine) and maintained in a humidified incubator at 37° C. in 5% CO2/95% air atmosphere. Half of the medium was changed every 2 days with fresh medium. On 96-wells plates, only 60 wells are used. To avoid any edge effect, the first and last lines and columns were not used for culture and were filled with sterile water.
CDNF as well as linear and macrocyclic compounds […] (SEQ ID NOs: 1-26) were tested. On day 6 of culture, the compounds were dissolved in culture medium and then pre-is incubated with mesencephalic neurons for 4 hours before the MPP+ application. Four hours after the preincubation of the compounds, MPP+ was added to a final concentration of 4 pM, diluted in control medium still in presence of compounds for 48 h.
48 h after intoxication, the cells were fixed by a solution of 4% paraformaldehyde in PBS, pH 7.3 for 20 min at room temperature. The cells were washed twice in PBS, and then permeabilized and non-specific sites were blocked with a solution of PBS containing 0.1% of saponin and 1% FCS for 15 min at room temperature. Next, the cells were incubated with (a) a monoclonal antibody anti-Tyrosine Hydroxylase (TH) produced in mouse at dilution of 1:10000 and with (b) a polyclonal antibody anti-alpha-synuclein (α-syn) antibody produced in rabbit at dilution of 1:400 in PBS containing 1% FCS, 0.1% saponin, for 2 h at room temperature.
48 h after intoxication, the cell culture supernatant was removed, and the cells fixed by a solution of 4% paraformaldehyde in PBS, pH 7.3 for 20 min at room temperature. The cells were washed twice in PBS, and then permeabilized and non-specific sites were blocked with a solution of PBS containing 0.1% of saponin and 1% FCS for 15 min at room temperature. Then, the cells were incubated with a) a monoclonal Anti-Tyrosine Hydroxylase (TH) antibody produced in mouse at dilution of 1:10000 in PBS containing 1% FCS, 0.1% saponin, for 2 hours at room temperature, and b) a polyclonal anti-postsynaptic density protein-95 (PSD-95) antibody produced in rabbit at dilution of 1:200 in PBS containing 1% FCS, 0.1% saponin, for 2 h at room temperature. This antibody stains specifically synapses. […]

Another data set deals with human hepatocytes. In words: In vitro metabolic stability in human hepatocytes. The format is in vitro ADME. As to conditions: 1 μM, 37° C., up to 60 min. As for the experimental part:
The linear or macrocyclic compounds 1-8, 11-14 and 23-26 (SEQ ID NOs: 1-8, 11-14 and 23-26) were incubated in concentration 1 μM with pooled cryopreserved human hepatocytes (mixed gender; 400 pl, 1.0 million viable cells/ml) for different time points (0, 20, 40 or 60 min) at 37° C. The cell density and viability were determined by trypan blue is exclusion method. The incubation was terminated by acetonitrile. The collected samples were centrifuged for 20 min at 2272×g and analyzed. The samples were analyzed by UPLC/PDA with high resolution mass spectrometry (QE-Orbitrap-MS on DDI mode) to monitor disappearance of the compound. Verapramil 1 μM was used as a disappearance rate control. The analytical method was optimized by using the parent compounds for optimum chromatographic properties (peak shape and retention) and mass spectrometric ionization. The Ion chromatograms were extracted from the total ion chromatograms using calculated monoisotopic accurate masses with 5 mDa window. Disappearance was based on LC/MS peak areas, marking 0 min as 100%. The first-order rate constants k (min-1) of the metabolism were obtained from the slope of time versus logarithm (% of remaining compound) plot using Excel software. The in vitro half-life (t1/2) of study compound is defined as: t1/2In2/k. Calculated half-life is based on compound disappearance in human liver hepatocytes.

Bridge positions count the residues as written; N and C are the ends. Peptide text beside a SMILES is read from it.

With `C[C@@H]1NC(=O)CNC(=O)[C@H](CCCNC(=N)N)NC(=O)[C@@H]2CSSC[C@H](NC1=O)C(=O)N[C@@H](C)C(=O)N[C@@H](CCC(=O)O)C(=O)N[C@@H](CCCCN)C(=O)N[C@@H]([C@@H](C)O)C(=O)N[C@@H](Cc1c[nH]c3ccccc13)C(=O)NCC(=O)N[C@@H](CCC(=O)O)C(=O)N[C@@H](CCC(=O)O)C(=O)N2` [Compound 24, WGEECRGACAEKT] (cyclo(ACAEKTWGEECRG); disulfide 2-11), the “stability in rat hepatocytes as compared to linear counterpart” value in the data set on rat hepatocytes is given as “significantly improved stability”. Besides, in data set [1], the “potency of macrocyclic peptide versus its linear counterpart” value is on record as “comparable”. Besides, the “stability in human hepatocytes as compared to linear counterpart” value in the data set with human hepatocytes is “significantly improved stability”.
In the case of `C[C@@H]1NC(=O)[C@@H]2CSSC[C@H](NC(=O)[C@H]([C@@H](C)O)NC(=O)[C@H](CCC(=O)O)NC(=O)CNC(=O)[C@H](Cc3c[nH]c4ccccc34)NC(=O)[C@H](CO)NC(=O)[C@H](CCCCN)NC(=O)[C@H](CCC(=O)O)NC1=O)C(=O)N[C@@H](CCCCN)C(=O)NCC(=O)NCC(=O)N2` [Compound 26, WGETCKGGCAEKS] (cyclo(AEKSWGETCKGGC); disulfide 9-13), in the data set with rat hepatocytes, the “stability in rat hepatocytes as compared to linear counterpart” value is listed as “significantly improved stability”. Further, the “potency of macrocyclic peptide versus its linear counterpart” value in data set [1] is given as “comparable”. Moreover, the “stability in human hepatocytes as compared to linear counterpart” value with human hepatocytes is “significantly improved stability”.
